Source: ChEMBL document CHEMBL5727423, “Methods using HDAC11 inhibitors” (2019)

Target: T1, Histone deacetylase 11 (Homo sapiens, UniProt Q96DB2)
T1 sequence (Q96DB2 whole entry): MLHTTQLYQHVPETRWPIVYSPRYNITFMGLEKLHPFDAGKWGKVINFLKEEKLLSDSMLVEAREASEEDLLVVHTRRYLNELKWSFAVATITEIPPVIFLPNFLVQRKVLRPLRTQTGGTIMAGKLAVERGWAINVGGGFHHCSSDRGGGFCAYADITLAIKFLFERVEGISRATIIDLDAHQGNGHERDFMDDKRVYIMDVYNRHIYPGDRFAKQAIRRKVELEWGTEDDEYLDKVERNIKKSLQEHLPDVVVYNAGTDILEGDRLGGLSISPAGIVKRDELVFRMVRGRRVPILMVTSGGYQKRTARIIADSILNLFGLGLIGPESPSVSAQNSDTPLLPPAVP
Assay: HDAC Inhibition Assays: This example describes in vitro inhibition properties of exemplary HDAC11 inhibitors for various HDACs. HDAC inhibition assays were performed using an electrophoretic mobility shift assay at Nanosyn, Inc. (Santa Clara, Calif.). Full length human recombinant HDAC proteins were expressed in the baculoviral system and purified by affinity chromatography. A human recombinant HDAC3 was co-expressed with nuclear receptor corepressor (Ncor2). The following peptide substrates were used: FAM-RHKK(Ac)-NH2 for HDAC3, HDAC6 and HDAC8; FITC-H3K27(Ac)-NH2 for HDAC1, HDAC2 and HDAC10; FAM-RHKK(tri-fluor-Ac)-NH2 for HDAC4, HDAC5, HDAC7, HDAC9 and HDAC11. Reactions consisting of compound, enzyme, and substrate were performed in reaction buffer (comprised of 100 mM HEPES, pH7.5, 25 mM KCl, 0.1% bovine serum albumin, 0.01% Triton X-100) at 25° C. and quenched by the addition of termination buffer (100 mM HEPES, pH7.5, 0.01% Triton X-100, 0.05% SDS). The fluorescence intensity of the electrophoretically separated de-acetylated product and substrate peptide were measured and analyzed using the LabChip® 3000 microfluidic electrophoresis instrument (Perkin Elmer/Caliper Life Sciences). The IC50 values of inhibitors were determined by fitting the %-inhibition curves with 4 parameter dose-response model using XLfit 4 software (IDBS).

IC50: < 500 nM
SMILES: N#Cc1cc2nc(Nc3cccc(C(=O)NO)c3)[nH]c2cc1C(F)(F)F
